Series [1] is described as follows: Bioavailability (F) was evaluated in rat, after administering 1 mg/kg intravenously. It counts as ADME, organism-based. Particulars: in vivo, iv.
The nature of series [2]: Half-life period was evaluated in rat, after administering 1 mg/kg intravenously. It counts as ADME, organism-based. On the set-up: dose 1 mg/kg, route intravenous. Particulars: in vivo, iv.
Series [3] addresses C-C chemokine receptor type 5 (Homo sapiens, UniProt P51681). The series can be described thus: Inhibitory activity against specific binding of [125I]-MIP-1 alpha to human CCR5 receptor.
Series [4] concerns the target C-C chemokine receptor type 2 (Homo sapiens, UniProt P41597). The series can be described thus: Compound concentration that causes 50 % inhibition of binding of specific radioligand to human CCR2 receptor.
The target in series [5] is T1, C-C chemokine receptor type 3 (Homo sapiens, UniProt P51677).
T1 sequence (P51677 whole entry): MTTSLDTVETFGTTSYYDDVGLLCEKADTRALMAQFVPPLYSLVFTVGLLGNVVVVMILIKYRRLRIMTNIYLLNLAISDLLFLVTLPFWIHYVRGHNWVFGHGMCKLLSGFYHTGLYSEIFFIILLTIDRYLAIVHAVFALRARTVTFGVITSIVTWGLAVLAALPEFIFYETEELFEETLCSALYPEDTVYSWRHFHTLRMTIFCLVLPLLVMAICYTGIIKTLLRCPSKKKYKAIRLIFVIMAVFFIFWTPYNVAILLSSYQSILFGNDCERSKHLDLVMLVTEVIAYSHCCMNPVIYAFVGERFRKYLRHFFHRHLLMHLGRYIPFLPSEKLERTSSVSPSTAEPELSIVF
The series can be described thus: Compound concentration that causes 50 % inhibition of binding of specific radioligand to human CCR3 receptor.

The species entered for a further series is Homo sapiens. The series can be described thus: Compound was evaluated in an isolated peripheral blood mononuclear cell (PBMC) viral replication assay using the X4-tropic NL4-3 strain; No inhibition. The format is functional.
A short description of series [6]: Compound was evaluated in an isolated peripheral blood mononuclear cell (PBMC) viral replication assay using the R5-tropic HIV-1 YU-2 isolate. Particulars: Homo sapiens. The format is functional.
Series [7] can be described thus: Compound was evaluated in an isolated peripheral blood mononuclear cell (PBMC) viral replication assay using the R5-tropic strain SF-162 isolate. It counts as functional. The settings on record: Homo sapiens.
In series [8] the target is T2, C-C chemokine receptor type 1 (Homo sapiens, UniProt P32246).
T2 sequence (P32246 whole entry): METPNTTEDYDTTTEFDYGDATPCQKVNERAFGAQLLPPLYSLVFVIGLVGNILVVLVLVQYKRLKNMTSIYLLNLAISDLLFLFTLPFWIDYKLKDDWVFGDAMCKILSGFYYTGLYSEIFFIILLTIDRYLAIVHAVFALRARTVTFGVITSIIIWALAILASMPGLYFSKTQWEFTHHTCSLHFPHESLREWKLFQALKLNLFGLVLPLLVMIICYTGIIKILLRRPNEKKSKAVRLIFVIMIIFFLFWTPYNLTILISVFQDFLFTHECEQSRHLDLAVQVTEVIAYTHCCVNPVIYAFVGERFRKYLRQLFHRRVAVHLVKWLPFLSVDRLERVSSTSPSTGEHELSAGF
The series can be described thus: Compound concentration that causes 50 % inhibition of binding of specific radioligand to human CCR1 receptor.

Series [9] addresses C-X-C chemokine receptor type 4 (Homo sapiens) (UniProt P61073). The series can be described thus: Compound concentration that causes 50 % inhibition of binding of specific radioligand to human CXCR4 receptor.

One compound from ChEMBL document CHEMBL1133796, “Antagonists of the human CCR5 receptor as anti-HIV-1 agents. Part 2: structure-activity relationships for substituted 2-Aryl-1-[N-(methyl)-N-(phenylsulfonyl)amino]-4-(piperidin-1-yl)butanes” (Bioorg Med Chem Lett, 2001) can be followed below.

Active and inactive are the calls of the source. Where only a bound is given, the exact number is not on record here.

C-C chemokine receptor type 2, sequence (P41597 whole entry): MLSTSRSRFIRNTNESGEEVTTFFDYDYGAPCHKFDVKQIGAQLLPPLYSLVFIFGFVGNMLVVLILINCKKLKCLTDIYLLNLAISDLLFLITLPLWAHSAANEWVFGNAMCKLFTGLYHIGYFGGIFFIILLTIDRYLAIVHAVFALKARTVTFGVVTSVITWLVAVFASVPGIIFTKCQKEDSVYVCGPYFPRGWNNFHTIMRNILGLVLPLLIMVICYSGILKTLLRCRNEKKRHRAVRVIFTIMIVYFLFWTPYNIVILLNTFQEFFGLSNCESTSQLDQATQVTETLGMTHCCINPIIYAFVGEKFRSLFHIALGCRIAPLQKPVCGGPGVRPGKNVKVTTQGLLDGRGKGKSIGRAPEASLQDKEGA
C-C chemokine receptor type 5, sequence (P51681 whole entry): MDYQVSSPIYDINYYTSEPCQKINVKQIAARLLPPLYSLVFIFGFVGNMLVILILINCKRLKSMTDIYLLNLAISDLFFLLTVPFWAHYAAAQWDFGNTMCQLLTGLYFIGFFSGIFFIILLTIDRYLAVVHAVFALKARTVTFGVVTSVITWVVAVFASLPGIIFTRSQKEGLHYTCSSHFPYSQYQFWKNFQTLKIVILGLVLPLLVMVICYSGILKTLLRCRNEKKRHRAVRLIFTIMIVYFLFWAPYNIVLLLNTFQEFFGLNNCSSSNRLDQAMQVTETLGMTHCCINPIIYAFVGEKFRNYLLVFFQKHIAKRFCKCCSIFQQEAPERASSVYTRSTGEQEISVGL
C-X-C chemokine receptor type 4 (Homo sapiens), sequence (P61073 whole entry, looked up): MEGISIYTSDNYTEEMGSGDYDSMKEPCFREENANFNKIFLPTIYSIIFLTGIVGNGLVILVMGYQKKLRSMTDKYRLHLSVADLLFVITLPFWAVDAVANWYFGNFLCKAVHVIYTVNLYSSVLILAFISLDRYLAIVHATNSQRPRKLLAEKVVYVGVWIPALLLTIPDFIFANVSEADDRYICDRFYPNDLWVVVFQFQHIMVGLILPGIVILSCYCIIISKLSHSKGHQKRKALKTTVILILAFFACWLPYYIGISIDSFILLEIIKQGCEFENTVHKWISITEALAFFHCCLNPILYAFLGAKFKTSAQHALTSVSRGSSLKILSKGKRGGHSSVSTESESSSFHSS

For orientation: bioavailability means the share of a dose that reaches the circulation, judged against a reference dose that is usually intravenous. High values mean good availability, low ones poor availability. In general, half-life refers to the time needed for the level to fall by half in the phase considered. Low readings indicate fast loss, high ones slow loss. Broadly, the IC50 is the concentration that inhibits the measured activity by half. Low values mean higher potency, high ones lower potency. What is called IC95 is the concentration needed for an effect of 95%. A lower IC95 goes with greater potency. `CN(C[C@@H](CCN1CCC2(CC1)C[S+]([O-])c1ccccc12)c1cccc(Cl)c1)S(=O)(=O)c1ccccc1` (stereo not given in full) had a bioavailability in series [1] of 3%. Further, the half-life in series [2] is 42 min. For the same compound, the IC50 is 10 nM in [3]; > 10000 nM in [4]; > 10000 nM in series [5]; > 10000 nM in series [8]; 10000 nM in series [9]. In the series filed under Homo sapiens, the NI entry is “inactive”. Moreover, the IC95 came to 1500 nM in series [6] and 800 nM in series [7].
